Values after ≈ are worked out from the molar mass of the structure shown. Values joined by “and” are separate entries in the source; they are usually repeats but may differ in a detail not shown here. Identical values can stand only once. Like-named read-outs stand apart in the source and are kept apart here.
Assays:
[1] = tested on: NB4, U937, Raji and RPMI-8226 cells; test: In vitro cytotoxicity, whole CD13 cell panel; settings: for IC50: Homo sapiens
Text: (§1) All tumor cell lines used in this study were obtained from the American Type Culture Collection (ATCC), unless otherwise indicated; BT-474 (ATCC HTB-20, Breast Ductal Carcinoma), SK-BR-3 (ATCC HTB-30, Breast Adenocarcinoma) and HCC-1954 (ATCC CRL-2338, Breast Ductal Carcinoma), all HER2+; MDA-MB-231 (ATCC HTB-26, Breast Adenocarcinoma) and MCF-7 (ATCC HTB-22 Breast Adenocarcinoma, pleural effusion), all HER2-; SK-OV-3 (ATCC HTB-77, Ovary Adenocarcinoma), HER2+; NB-4 (Acute Promyelocytic Leukemia, APL, CD13+, M. Lanotte et al. (1991) NB4, a maturation inducible cell line with t(15;17) marker isolated from a human acute promyelocytic leukemia (M3). Blood 77, 1080-1086), (CD13+) and U937 (ATCC CRL-1 593.2, Histiocytic Lymphoma, CD13+ and CD4+); Raji (ATCC CCL-86, Burkitt's Lymphoma) (CD13−, CD20+, CD5−, and CD4−); RPMI-8226 (ATCC CRM-CCL-155, Multiple Myeloma) (CD13−, CD20−, CD5− and CD4−); Karpas-299 (DSMZ ACC-31, Non-Hodgkin's Lymphoma) (CD20−, CD5+, and CD4+); MOLT-4 (ATCC CRL-1 582, Acute Lymphoblastic Leukemia, CD5+). In addition, the two Raji cell (ATCC CCL-86, Burkitt's Lymphoma) clones used in this study Raji-clone #10 (high CD5 expression) and Raji-clone18 (null CD5 expression), were provided by Dr. Juan M. Zapata (Instituto de Investigaciones Biomedicas “Alberto Sols”, CSIC-UAM, Madrid, Spain). Cells were maintained at 37° C., 5% CO 2 and 95% humidity in Dulbecco's Modified Eagle's Medium (DMEM) (for MCF and MDA-MB-231 cells), RPMI-1640 (for SK-BR-3, HCC-1954, NB-4, U937, Raji, RPMI-8226, Karpas-299, MOLT-4, Raji-clone #10 and Raji-clone #18 cells), RPMI-1640+1% ITS (for BT-474 cells) or McCOyS (for SK-OV-3 cells), all media supplemented with 10% Fetal Calf Serum (FCS) and 100 units/mL penicillin and streptomycin.
(§2) For suspension cells: A standard metabolic assay using MTT (3-(4,5-Dimethylthiazol-2-yl)-2,5-diphenyltetrazolium bromide) was adapted for quantitative measurement of cell growth and cytotoxicity, as described in T. Mosmann (1983) Rapid colorimetric assay for cellular growth and survival: Application to proliferation and cytotoxicity assays. J. Immunol. Meth., 65, 55-63. Briefly, MTT solution was added to the cell cultures at a final concentration of 0.5 mg/mL, and incubated for 1 to 4 hours at 37° C. until formazan crystals are formed. Culture medium is carefully removed from the cell cultures and formazan crystals resuspended in 100 μl DMSO. After mixing to assure solubilization, the quantity of formazan (presumably directly proportional to the number of viable cells) is measured by recording changes in absorbance at 570 nm using a plate reading spectrophotometer. Cell survival was expressed as percentage of control, untreated cell survival.
(§3) The IC50 value refers to the concentration of compound inducing a 50% of cell death as compared to the control cell survival.
The in vitro cytotoxic activity of ADC9 along with the parent cytotoxic Compounds 1 and 4, was evaluated against different human tumor cell lines expressing or not the CD13 receptor, including NB4 and U937 (CD13 positive cells) and Raji and RPMI-8226 (CD13 negative cells). Standard dose-response (DR) curves for 72 hours were performed.

[2] = tested on: Karpas-299, U937, Raji and RPMI-8226 cells; test: In vitro cytotoxicity, whole CD4 cell panel; settings: for IC50: Homo sapiens
Text: as §1, §2, §3
The in vitro cytotoxic activity of ADC16 along with the parent cytotoxic Compounds 1, 4, and 40, was evaluated against different human cancer cell lines expressing or not the CD4 antigen, including Karpas-299 and U937 (both CD4+); Raji and RPMI-8226 (both CD4−). Standard dose-response (DR) curves for 72 hours were performed.

[3] = tested on: HCC-1954, SK-BR-3, MDA-MB-231 and MCF-7 cells; test: In vitro cytotoxicity, whole breast cancer cell panel; settings: for IC50: Homo sapiens
Text: as §1
For adherent cells: A colorimetric assay using sulforhodamine B (SRB) was adapted for quantitative measurement of cell growth and cytotoxicity, as described in V. Vichai and K. Kirtikara (2006) Sulforhodamine B colorimetric assay for cytotoxicity screening. Nature Protocols, 1, 1112-1 116. Briefly, cells were seeded in 96-well microtiter plates and allowed to stand for 24 hours in drug-free medium before treatment with vehicle alone or the indicated compounds for 72 hours. For quantification, cells were washed twice with phosphate buffered saline (PBS), fixed for 15 min in 1% glutaraldehyde solution, rinsed twice with PBS, stained in 0.4% SRB-1% acetic acid solution for 30 min, rinsed several times with 1% acetic acid solution and air-dried. SRB was then extracted in 10 mM trizma base solution and the optical density measured at 490 nm in a microplate spectrophotometer. Cell survival was expressed as percentage of control, untreated cell survival.
as §3
Standard dose-response (DR) curves for 72 hours were performed.

NB-4 cells = test: In vitro cytotoxicity, MTT assay, 72 h dose-response; format: cell-based; settings: Homo sapiens, CD13+
Method: (§5) Briefly, MTT solution was added to the cell cultures at a final concentration of 0.5 mg/mL, and incubated for 1 to 4 hours at 37° C. until formazan crystals are formed. Culture medium is carefully removed from the cell cultures and formazan crystals resuspended in 100 μl DMSO. […] Cell survival was expressed as percentage of control, untreated cell survival.

HCC-1954 cells = test: In vitro cytotoxicity, SRB assay, 72 h dose-response; format: cell-based; settings: Homo sapiens, HCC1954, 72 h, HER2+; 72 h; read-out: IC50
Text: (§4) Nature Protocols, 1, 1112-1 116.

MDA-MB-231 cells = test: as above; format: cell-based; settings: Homo sapiens, MDA-MB-231, 72 h, HER2−; 72 h; read-out: IC50
Text: as §4

MCF-7 cells = test: as above; format: cell-based; settings: Homo sapiens, MCF7, 72 h, HER2−; 72 h; read-out: IC50
Text: as §4

[4] = tested on: Raji-clone #10 (high CD5 expression); test: In vitro cytotoxicity, MTT assay, 72 h dose-response; format: cell-based; settings: Homo sapiens
Method: as §5

[5] = tested on: Raji, RPMI-8226 and Karpas-299 cells; test: In vitro cytotoxicity, whole CD20 cell panel; settings: Homo sapiens
Text: as §1, §2, §3
The in vitro cytotoxic activity of ADC12 along with the parent cytotoxic Compounds 1, 4, and 40, was evaluated was assayed against different human cancer cell lines expressing or not the CD20 antigen, including Raji (CD20 positive cells); RPMI-8226 and Karpas-299 (CD20 negative cells). Standard dose-response (DR) curves for 72 hours were performed.

SK-BR-3 cells = test: In vitro cytotoxicity, SRB assay, 72 h dose-response; format: cell-based; settings: Homo sapiens, SK-BR-3, 72 h, HER2+; 72 h; read-out: IC50
Text: All tumor cell lines used in this study were obtained from the American Type Culture Collection (ATCC), unless otherwise indicated; BT-474 (ATCC HTB-20, Breast Ductal Carcinoma), SK-BR-3 (ATCC HTB-30, Breast Adenocarcinoma) and HCC-1954 (ATCC CRL-2338, Breast Ductal Carcinoma), all HER2+; MDA-MB-231 (ATCC HTB-26, Breast Adenocarcinoma) and MCF-7 (ATCC HTB-22 Breast Adenocarcinoma, pleural effusion), all HER2-; SK-OV-3 (ATCC HTB-77, Ovary Adenocarcinoma), HER2+; NB-4 (Acute Promyelocytic Leukemia, APL, CD13+, M. Lanotte et al. (1991) NB4, a maturation inducible cell line with t(15;17) marker isolated from a human acute promyelocytic leukemia (M3). […] Cells were maintained at 37° C., 5% CO 2 and 95% humidity in Dulbecco's Modified Eagle's Medium (DMEM) (for MCF and MDA-MB-231 cells), RPMI-1640 (for SK-BR-3, HCC-1954, NB-4, U937, Raji, RPMI-8226, Karpas-299, MOLT-4, Raji-clone #10 and Raji-clone #18 cells), RPMI-1640+1% ITS (for BT-474 cells) or McCOyS (for SK-OV-3 cells), all media supplemented with 10% Fetal Calf Serum (FCS) and 100 units/mL penicillin and streptomycin.
For adherent cells: A colorimetric assay using sulforhodamine B (SRB) was adapted for quantitative measurement of cell growth and cytotoxicity, as described in V. Vichai and K. Kirtikara (2006) Sulforhodamine B colorimetric assay for cytotoxicity screening. […] Briefly, cells were seeded in 96-well microtiter plates and allowed to stand for 24 hours in drug-free medium before treatment with vehicle alone or the indicated compounds for 72 hours. For quantification, cells were washed twice with phosphate buffered saline (PBS), fixed for 15 min in 1% glutaraldehyde solution, rinsed twice with PBS, stained in 0.4% SRB-1% acetic acid solution for 30 min, rinsed several times with 1% acetic acid solution and air-dried. SRB was then extracted in 10 mM trizma base solution and the optical density measured at 490 nm in a microplate spectrophotometer. Cell survival was expressed as percentage of control, untreated cell survival.

[6] = tested on: Raji-clone #18 (null CD5 expression); test: In vitro cytotoxicity, MTT assay, 72 h dose-response; format: cell-based; settings: Homo sapiens, C#18 (null CD5)
Method: as §5

Raji cells = test: as above; format: cell-based, human; settings: Homo sapiens, Raji, CD13−, CD20+, CD5−, CD4−, read-out: IC50
Method: as §5

RPMI-8226 cells = test: as above; format: cell-based, human; settings: Homo sapiens, RPMI-8226, 72 h, CD13−, CD20−, CD5−, CD4−, read-out: IC50
Method: as §5

U937 cells = test: as above; format: cell-based, human; settings: Homo sapiens, U-937, 72 h, CD13+, CD4+, read-out: IC50
Method: as §5

[7] = read-out: IC50 values across the different cell lines tested (range)
[8] = read-out: mean IC50 value across the whole cell panel
[9] = long maleimide containing linker
[10] = read-out: IC50 values along the different cell lines tested (range), four breast cell lines
[11] = read-out: mean IC50 value across the whole cell panel, four breast cell lines

| Compound | IC50 [1, 7] | IC50 [1, 8] | IC50 [3, 10] | IC50 [3, 11] | IC50 (NB-4 cells) | IC50 (HCC-1954 cells) | IC50 (MDA-MB-231 cells) | IC50 (MCF-7 cells) | IC50 (SK-BR-3 cells) | further results |
| --- | --- | --- | --- | --- | --- | --- | --- | --- | --- | --- |
| COC1=CC[C@@H]([C@@H](C)/C=C(C)/C=C\C=C/C(=O)N[C@H](C(=O)N/C=C\C[C@H](C/C=C(\C)Cl)OC(=O)NCCCNC(=O)OCc2ccc(NC(=O)[C@H](CCCNC(N)=O)NC(=O)[C@@H](NC(=O)CCCCCN3C(=O)C=CC3=O)C(C)C)cc2)C(C)(C)C)OC1=O [Compound 12] | 0.0044 µg/mL to 0.048 µg/mL and 3.5 nM to 38 nM | 0.02 µg/mL and 16 nM | 0.0076 µg/mL to 0.0305 µg/mL and 6.02 nM to 24.2 nM | 0.0163 µg/mL and 12.9 nM | 0.00445 µg/mL and 3.53 nM | 0.0076 µg/mL and 6.02 nM | 0.018 µg/mL and 14.3 nM | 0.0305 µg/mL and 24.2 nM | 0.00905 µg/mL and 7.18 nM | decrease of cytotoxic activity as compared to Compound 4 ([1]; long linker): ~1 log; IC50 [2, 7]: 0.073 µg/mL to 0.41 µg/mL and 58 nM to 320 nM; IC50 [2, 8]: 0.17 µg/mL and 130 nM; reduction of cytotoxic activity as compared to Compound 4 [2, 9]: ~2 log; reduction of cytotoxic activity as compared to Compound 40 [2, 9]: ~3 log; IC20 ([4]; C#10 (high CD5)): 0.15 µg/mL and 119 nM; IC50 ([4]; C#10 (high CD5)): 0.27 µg/mL and 214 nM; IC50 ([4]; clone #10, CD5 expressing): 215 nM; IC50 [5, 7]: 0.022 µg/mL to 0.067 µg/mL and 18 nM to 55 nM; IC50 [5, 8]: 0.039 µg/mL and 31 nM; IC20 [6]: 0.2 µg/mL and 159 nM; IC50 [6]: > 792 nM and > 1 µg/mL |
| COC1=CC[C@@H]([C@@H](C)/C=C(C)/C=C\C=C/C(=O)N[C@H](C(=O)N/C=C\C[C@H](C/C=C(\C)Cl)OC(=O)NCCCNC(=O)CCS)C(C)(C)C)OC1=O [Compound 13] | 0.0017 µg/mL to 0.01 µg/mL and 2.7 nM to 14 nM | 0.0043 µg/mL and 5.7 nM | 0.795 to 2.63 ng/mL (≈ 1.06 to 3.5 nM) | 0.00183 µg/mL and 2.44 nM | 0.0017 µg/mL and 2.26 nM | 0.00149 µg/mL and 1.98 nM | 0.00263 µg/mL and 3.5 nM | 0.00243 µg/mL and 3.23 nM | 0.000795 µg/mL and 1.06 nM | IC50 (Raji cells): 0.0103 µg/mL and 13.7 nM; IC50 (RPMI-8226 cells): 0.0023 µg/mL and 3.06 nM; reduction of cytotoxic activity as compared to Compound 40 ([1]; thiol containing tail): less than 1 log; IC50 (U937 cells): 0.00285 µg/mL and 3.8 nM; decrease of cytotoxic activity as compared to Compound 4 ([3]; thiol containing tail): about 5 fold |
